Assay [1] concerns IL10 secretion, OCI-LY10 cells. Put plainly: Human IL10 secretion assay, Assay 1 (HTRF). In kind it is cell-based. The note with it: 24 h incubation, read-out: IL-10 Secretion IC50 [nM] Assay 1. Put shortly:
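OCI-LY10 cells (3×10^5/well, IMEM with 20% FBS) were treated with 3-fold serial compound dilutions from a 10 mM stock, 0.1% DMSO final, for 24 h. Secreted IL10 in medium was quantified by HTRF, normalised to DMSO-treated and no-cell controls, and IC50 (nM) derived by 4-parameter fit.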
Background: TR-FRET usually uses a lanthanide donor and a delayed reading to cut background.

The target in assay [2] is full-length MALT1 protein His-MALT1(1-824) (Homo sapiens (Human), UniProt Q9UDY8). Put plainly: MALT1 protease assay, Assay 1 (2 nM MALT1, Ac-LRSR-AMC substrate). In kind it is biochemical. The following applies: 2 nM MALT1, 50 μM Ac-LRSR-AMC, 2 h pre-incubation, 8 hr incubation at RT. The procedure: MALT1 protease activity was assessed in an in vitro assay using a tetrapeptide as substrate and full-length MALT1 protein His-MALT1(1-824) purified from baculovirus-infected insect cells.
Sequence of full-length MALT1 protein His-MALT1(1-824) (Q9UDY8 whole entry): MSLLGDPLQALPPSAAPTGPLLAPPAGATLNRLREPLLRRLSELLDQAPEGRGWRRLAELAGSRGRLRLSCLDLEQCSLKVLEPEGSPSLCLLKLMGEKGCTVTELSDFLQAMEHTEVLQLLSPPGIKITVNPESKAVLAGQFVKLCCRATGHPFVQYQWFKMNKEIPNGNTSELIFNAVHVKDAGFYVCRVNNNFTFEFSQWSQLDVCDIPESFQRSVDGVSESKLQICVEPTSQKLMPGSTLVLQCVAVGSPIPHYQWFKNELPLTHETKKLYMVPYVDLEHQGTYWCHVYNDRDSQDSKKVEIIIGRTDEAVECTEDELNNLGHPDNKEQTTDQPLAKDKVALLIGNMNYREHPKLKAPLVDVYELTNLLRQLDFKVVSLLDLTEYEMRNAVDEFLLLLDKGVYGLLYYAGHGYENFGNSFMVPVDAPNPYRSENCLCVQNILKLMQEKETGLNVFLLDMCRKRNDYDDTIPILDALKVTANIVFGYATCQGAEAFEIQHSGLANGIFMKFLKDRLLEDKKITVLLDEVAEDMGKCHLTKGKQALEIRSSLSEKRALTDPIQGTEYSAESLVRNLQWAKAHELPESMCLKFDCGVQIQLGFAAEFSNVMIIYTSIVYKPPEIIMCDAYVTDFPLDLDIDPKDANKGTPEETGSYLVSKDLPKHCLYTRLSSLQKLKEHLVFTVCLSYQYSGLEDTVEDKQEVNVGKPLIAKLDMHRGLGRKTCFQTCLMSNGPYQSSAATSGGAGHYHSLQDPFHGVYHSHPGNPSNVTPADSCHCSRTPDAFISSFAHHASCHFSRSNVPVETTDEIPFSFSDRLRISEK
The final assay buffer includes 1 nM (Assay 2) or 2 nM (Assay 1) of MALT1 full-length protein, 50 μM Ac-LRSR-AMC substrate, 50 mM Tris pH 7.5, 600 mM Sodium Citrate, 1 mM DTT, 1 mM EDTA, and 0.05% BSA in 384-well plate format using black microtiter square well plates (Optiplate 384-F, Perkin Elmer).
Test compounds were dissolved in 100% DMSO at stock of 10 mM, with final DMSO concentration 0.1%. Test compounds were pre-incubated with MALT1 protein for 2 h at room temperature. Substrate was added after the pre-incubation and fluorescence signal was measured using Envision at excitation 355 nm and emission 460 nm after 8 hr incubation at RT. Increase in the assay signal was linear over this period and proportional with increase in the enzyme content.
The fluorescence units were transformed to percentage of remaining activity by using the high control (HC, median of fluorescence signal from wells containing MALT1 protein, substrate, and DMSO) and low control (LC, median of fluorescence signal from wells with substrate only) with the formula below: […]
IC50 and Hill coefficient were obtained using Graph Pad Prism (Graph Pad software, Inc, USA) with non-linear regression analysis.

In general, IC50 refers to the concentration at which inhibition is half-maximal. Turning to `Cc1cc2ncc3c(n2n1)C(C)(C)CCN3C(=O)Nc1cnc(-n2nccn2)c(Cl)c1` [compound 8, N-(5-chloro-6-(2H-1,2,3-triazol-2-yl)pyridin-3-yl)-2,9,9-trimethyl-8,9-dihydropyrazolo[1,5-a]pyrido[2,3-e]pyrimidine-6(7H)-carboxamide], the IC50 in assay [1] lay within 100 to 1000 nM; in assay [2], 10 to 100 nM.

`CC1(C)CCN(C(=O)Nc2cnc(-n3nccn3)c(Cl)c2)c2ccc3cc(Cl)nn3c21` [compound 9, 2-chloro-N-(5-chloro-6-(2H-1,2,3-triazol-2-yl)pyridin-3-yl)-9,9-dimethyl-8,9-dihydropyrazolo[1,5-a][1,5]naphthyridine-6(7H)-carboxamide]: the IC50 in assay [1] was at least 1000 nM; in assay [2], 10 to 100 nM.

Regarding `Cn1cc(-c2ncc(NC(=O)N3C[C@@](C)(C(F)(F)F)c4c3cnc3cc(Cl)nn43)cc2Cl)cn1` [compound 20, (R)-2-chloro-N-(5-chloro-6-(1-methyl-1H-pyrazol-4-yl)pyridin-3-yl)-8-methyl-8-(trifluoromethyl)-7,8-dihydro-6H-pyrazolo[1,5-a]pyrrolo[2,3-e]pyrimidine-6-carboxamide], the half-inhibitory concentration (IC50) in assay [1] is 100 to 1000 nM; in assay [2], 10 to 100 nM.

Compound `C[C@@]1(C(F)(F)F)CN(C(=O)Nc2cnc(-n3cc(C#N)cn3)c(Cl)c2)c2cnc3cc(Cl)nn3c21` [compound 22, (R)-2-chloro-N-(5-chloro-6-(4-cyano-1H-pyrazol-1-yl)pyridin-3-yl)-8-methyl-8-(trifluoromethyl)-7,8-dihydro-6H-pyrazolo[1,5-a]pyrrolo[2,3-e]pyrimidine-6-carboxamide] yielded an IC50 in assay [2] of 10 to 100 nM.

`C[C@@]1(C(F)(F)F)CN(C(=O)Nc2cnc(N3CCCC3)c(Cl)c2)c2cnc3cc(Cl)nn3c21` [compound 23, (R)-2-chloro-N-(5-chloro-6-(pyrrolidin-1-yl)pyridin-3-yl)-8-methyl-8-(trifluoromethyl)-7,8-dihydro-6H-pyrazolo[1,5-a]pyrrolo[2,3-e]pyrimidine-6-carboxamide] registered an IC50 in assay [2] of 10 to 100 nM. The compound `Cn1cnc(-c2ncc(NC(=O)N3C[C@@](C)(C(F)(F)F)c4c3cnc3cc(Cl)nn43)cc2Cl)c1` [compound 28, (R)-2-chloro-N-(5-chloro-6-(1-methyl-1H-imidazol-4-yl)pyridin-3-yl)-8-methyl-8-(trifluoromethyl)-7,8-dihydro-6H-pyrazolo[1,5-a]pyrrolo[2,3-e]pyrimidine-6-carboxamide] displayed a half-inhibitory concentration (IC50) in assay [2] of 10 to 100 nM. Same read-out and setting: the same measure for `Cc1cc(NC(=O)N2C[C@@](C)(C(F)(F)F)c3c2cnc2cc(Cl)nn32)cnc1-n1ccnn1` [compound 30, (R)-2-chloro-8-methyl-N-(5-methyl-6-(1H-1,2,3-triazol-1-yl)pyridin-3-yl)-8-(trifluoromethyl)-7,8-dihydro-6H-pyrazolo[1,5-a]pyrrolo[2,3-e]pyrimidine-6-carboxamide]: 10 to 100 nM. Turning to `C[C@@]1(C(F)(F)F)CN(C(=O)Nc2cnc(CO)c(Cl)c2)c2cnc3cc(Cl)nn3c21` [compound 43, (R)-2-chloro-N-(5-chloro-6-(hydroxymethyl)pyridin-3-yl)-8-methyl-8-(trifluoromethyl)-7,8-dihydro-6H-pyrazolo[1,5-a]pyrrolo[2,3-e]pyrimidine-6-carboxamide], the IC50 in assay [1] was in the range of 100 to 1000 nM; in assay [2], 10 to 100 nM. With `C[C@@]1(C(F)(F)F)CN(C(=O)Nc2cc(Cl)c(=O)n(C(F)F)c2)c2cnc3cc(Cl)nn3c21` [compound 50, (R)-2-chloro-N-(5-chloro-1-(difluoromethyl)-6-oxo-1,6-dihydropyridin-3-yl)-8-methyl-8-(trifluoromethyl)-7,8-dihydro-6H-pyrazolo[1,5-a]pyrrolo[2,3-e]pyrimidine-6-carboxamide], the IC50 in assay [2] fell in the range of 10 to 100 nM. The compound `CNc1ncc(NC(=O)N2C[C@@](C)(C(F)(F)F)c3c2cnc2cc(Cl)nn32)cc1Cl` [compound 51, (R)-2-chloro-N-(5-chloro-6-(methylamino)pyridin-3-yl)-8-methyl-8-(trifluoromethyl)-7,8-dihydro-6H-pyrazolo[1,5-a]pyrrolo[2,3-e]pyrimidine-6-carboxamide] yielded an IC50 in assay [2] of 10 to 100 nM.

The values above are taken from patent publication US20240018157A1, “CYCLIC COMPOUNDS AND METHODS OF USING SAME” (Schrödinger, Inc., priority 2019, published 2024).
